Test results reported in patent US20120189758A1, “Flavour Enhancement” (priority 2009, published 2012).

How the values were obtained:
[1] = GABA concentration series in reference savoury solution, tasted for umami enhancement (Example 4); conditions: 5000 ppm table salt, 15 ppm MSG, 75 ppm IMP/GMP
Description: A reference solution containing 5000 ppm table salt, 15 ppm MSG and 75 ppm IMP/GMP was prepared. To different parts of this solution 5, 10, 15, 20, and 25 ppm GABA was added. The solutions were tasted by a small group of experienced tasters (3 male, 1 female). […] 15 ppm of GABA was the flavoured sample in comparison to the target.

[2] = Taste comparison of model savoury base, GABA solution and base plus GABA (Example 2); conditions: 4 experienced tasters; base: 5000 ppm table salt, 150 ppm MSG, 75 ppm IMP/GMP; GABA 10 ppm
Description: A model savoury solution containing 5000 ppm table salt, 150 ppm MSG and 75 ppm IMP/GMP was used as a base.
Another solution was prepared containing 10 ppm GABA.
In a third solution, 10 ppm GABA was added to the base solution.
The solutions were compared by a small group of experienced tasters (3 male, 1 female).
The base solution was described as salty and umami. The GABA solution was tasteless. All members of the group preferred the third solution over the first one and judged to be noticeably different from the base.

NCCCC(=O)O [GABA, γ-amino butyric acid]
GABA concentration of the flavoured (favoured) sample in comparison to the target [1]: 15 ppm | taste description [2]: tasteless
